# In patent publication US9963708B2, “Recombinant vector for foreign gene expression without biological circuit interference of host cell and uses thereof” (INDUSTRY FOUNDATION OF CHONNAM NATIONAL UNIVERSITY, priority 2014, dated 2018):
# Test system: cGMP receptor protein
# Experiment: Inducible GFP expression with cGMP added directly as inducing agent, without guanylyl cyclase
# Type: cell-based, Rhodospirillum centenum
# Settings: cGMP 500 μM in 0.1% DMSO, 6 hours; pTrc99a-P-CRP + pPRO (0896-GFPuv)3
# Excerpt: According to an inducible expression system, the target gene product is generally expressed in a large amount when there are internal/external inducing agents (chemicals, heat, oxygen, osmotic pressure, or the like) as a signal, and it is widely used in various fields. The most commonly used inducible system is a system in which IPTG is used as an inducing agent. However, being a chemically synthesized inducing agent, it is toxic to cells and, by producing an excess amount of proteins within a short time, a metabolic burden is stressful to the host, and thus it may work as a growth-inhibiting factor. […] To do so, guanylyl cyclase which converts GTP to cGMP molecule was removed, and cGMP was added as an inducing agent to a medium and the level of gene expression was determined. […]
# pTrc99a-Cyc-P-CRP plasmid was treated with restriction enzymes BamHI and HindIII to remove the polynucleotide encoding the guanylyl cyclase and according to treatment with a Klenow fragment, self-ligation was induced to complete pTrc99a-P-CRP construct. […] After inoculation to have 1% concentration of the original culture (15 ml), when the absorbance (OD600) of the culture reaches 0.5, cGMP dissolved in 0.1% DMSO was added to 500 μM and expression of the green fluorescent protein was induced for 6 hours. […]
compound,measurement,value
"Nc1nc2c(ncn2[C@@H]2O[C@@H]3COP(=O)(O)O[C@H]3[C@H]2O)c(=O)[nH]1 [cGMP, cyclic guanosine monophosphate]",expression of the green fluorescent protein induced by cGMP,there was indeed expression of the green fluorescent protein
